These results are taken from patent publication US8513232B2, “Substituted spirocyclic piperidine derivatives as histamine-3 (H3) receptor ligands” (Cephalon, Inc., priority 2008, dated 2013).

Like-named read-outs stand apart in the source and are kept apart here. A value given as a limit tells only on which side of the number the result lay.

Series [1] addresses T1, human H3 receptor (Homo sapiens, UniProt Q9Y5N1).
T1 construct: expressed in transfected cells
Description: Human H3 radioligand binding ([3H]-N-alpha-methylhistamine, SPA). Put shortly:
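SPA competition binding on membranes from CHO cells stably expressing human H3 receptor (10 μg protein/well) with ~1 nM [3H]-N-alpha-methylhistamine and compound at 0.01 nM-30 μM. Incubation 4 h at room temperature in 50 mM Tris-HCl pH 7.4, 5 mM MgCl2, 0.1% BSA; non-specific binding defined with 10 μM clobenpropit.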

For series [2], the target named is T2, rat histamine H3 receptor (Rattus norvegicus, UniProt Q9QYN8).
T2 construct: encoding the entire 445-amino-acid rat histamine H3 receptor; expressed in transfected cells; membrane preparation
Description: Rat H3 radioligand binding ([3H]-N-alpha-methylhistamine, SPA). In outline: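 Membranes from CHO-A3 cells stably expressing full-length rat H3 receptor (10 μg protein/well) incubated 4 h at room temperature, protected from light, with ~1 nM [3H]-N-alpha-methylhistamine and compound (0.01 nM-30 μM) in 50 mM Tris HCl pH 7.4, 5 mM MgCl2, 0.1% BSA. Binding read by SPA; 10 μM clobenpropit defined non-specific binding.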

Where [3] appears, read: Table C, human H3 binding, read-out: Human H3 Ki.
[4] abbreviates: Table C, rat H3 binding, read-out: Rat H3 Ki.

T2 sequence (Q9QYN8 whole entry): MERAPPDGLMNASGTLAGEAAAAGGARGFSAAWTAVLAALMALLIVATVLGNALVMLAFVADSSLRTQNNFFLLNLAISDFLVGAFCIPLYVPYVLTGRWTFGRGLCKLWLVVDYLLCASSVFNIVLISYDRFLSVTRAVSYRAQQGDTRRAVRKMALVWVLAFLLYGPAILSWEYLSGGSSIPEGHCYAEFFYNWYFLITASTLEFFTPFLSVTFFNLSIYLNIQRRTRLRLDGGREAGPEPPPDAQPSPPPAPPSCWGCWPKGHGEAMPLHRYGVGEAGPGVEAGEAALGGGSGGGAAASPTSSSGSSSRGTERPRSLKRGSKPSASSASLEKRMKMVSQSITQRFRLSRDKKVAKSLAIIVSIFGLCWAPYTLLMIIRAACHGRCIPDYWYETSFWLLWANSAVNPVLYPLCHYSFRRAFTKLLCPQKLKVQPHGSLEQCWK
T1 sequence (Q9Y5N1 whole entry): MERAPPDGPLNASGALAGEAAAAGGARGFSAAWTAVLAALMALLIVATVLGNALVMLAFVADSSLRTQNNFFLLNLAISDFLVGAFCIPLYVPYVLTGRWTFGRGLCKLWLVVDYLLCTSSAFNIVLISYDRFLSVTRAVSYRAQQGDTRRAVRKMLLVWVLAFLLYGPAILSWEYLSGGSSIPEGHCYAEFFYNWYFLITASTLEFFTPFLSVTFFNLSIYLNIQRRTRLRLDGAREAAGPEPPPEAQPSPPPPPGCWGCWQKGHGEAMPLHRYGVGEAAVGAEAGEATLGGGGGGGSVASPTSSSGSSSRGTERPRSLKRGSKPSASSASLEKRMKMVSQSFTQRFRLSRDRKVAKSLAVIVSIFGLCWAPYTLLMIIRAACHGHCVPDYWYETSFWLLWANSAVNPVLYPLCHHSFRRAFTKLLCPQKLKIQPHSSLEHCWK

With `O=S1(=O)CCN(c2ccc3c(c2)COC2(CCN(C4CCC4)CC2)O3)CC1` [Example 421], the melting point (in general, the temperature of the solid-liquid transition) fell in the range of 157 to 158 °C. Moreover, the Ki – broadly, a dissociation constant, usually derived from enzyme kinetics or from competition with a known ligand – in series [1] (setting [3]) is less than 200 nM. Further, in series [2] (setting [4]), the Ki is less than 200 nM.
On to `FC1(F)CCN(c2ccc3c(c2)COC2(CCN(C4CCC4)CC2)O3)CC1` [Example 422], for which the melting point was > 250 °C (dec.). Moreover, the Ki in series [1] (setting [3]) is less than 200 nM. Further, the inhibition constant Ki in series [2] (setting [4]) fell in the range of 200 to 1000 nM.
Consider `FC1(F)CCN(c2ccc3c(c2)COC2(CCN(C4CCC4)CC2)O3)C1` [Example 423], for which the melting point lay within 217 to 221 °C. Further, the Ki in series [1] (setting [3]) is less than 200 nM. Moreover, the Ki in series [2] (setting [4]) was less than 200 nM.
Compound `c1cc2c(cc1N1CCC(OCC3CC3)CC1)CCC1(CCN(C3CCC3)CC1)O2` [Example 424] registered a melting point of 280 to 283 °C. Besides, the Ki in series [1] (setting [3]) was less than 200 nM. The Ki in series [2] (setting [4]) was less than 200 nM.
Regarding `CC(=O)N1CCC(Oc2ccc3c(c2)CCC2(CCN(C4CCC4)CC2)O3)CC1` [Example 426], the melting point lay in the range of 227 to 229 °C. The Ki in series [1] (setting [3]) is less than 200 nM. Also, the Ki in series [2] (setting [4]) was less than 200 nM.
The compound `CC(C)C(=O)N1CCC(Oc2ccc3c(c2)CCC2(CCN(C4CCC4)CC2)O3)CC1` [Example 427] returned a melting point of 239 to 241 °C. Also, the Ki in series [1] (setting [3]) is less than 200 nM. Moreover, in series [2] (setting [4]), the Ki was less than 200 nM.
Turning to `O=c1ccc(-c2ccc3c(c2)CCC2(CCN(C4CCC4)CC2)O3)c[nH]1` [Example 429], the melting point fell in the range of 260 to 262 °C. In addition, the Ki in series [1] (setting [3]) was less than 200 nM. The Ki in series [2] (setting [4]) was less than 200 nM.
Compound `Cn1cc2c(n1)CCN(c1ccc3c(c1)CCC1(CCN(C4CCC4)CC1)O3)C2` [Example 430] displayed a melting point of 132 to 134 °C. Further, the Ki in series [1] (setting [3]) is less than 200 nM. In series [2] (setting [4]), the Ki is less than 200 nM.
Compound `CCOC1CCN(c2ccc3c(c2)COC2(CCN(C4CCC4)CC2)O3)CC1` [Example 431] showed a melting point of 266 to 269 °C. The Ki in series [1] (setting [3]) was less than 200 nM. The inhibition constant (Ki) in series [2] (setting [4]) was less than 200 nM.
Consider `c1ccc(OC2CCN(c3ccc4c(c3)CCC3(CCN(C5CCC5)CC3)O4)CC2)cc1` [Example 432], for which the melting point is > 265 °C (dec.). The Ki in series [1] (setting [3]) is less than 200 nM. The Ki in series [2] (setting [4]) was less than 200 nM.
For `c1cc2c(cc1OC1CCOCC1)CCC1(CCN(C3CCC3)CC1)O2` [Example 433], the melting point was in the range of 252 to 254 °C. In addition, the Ki in series [1] (setting [3]) is less than 200 nM. In addition, the Ki in series [2] (setting [4]) is less than 200 nM.
Take `O=C(C1CCN(c2ccc3c(c2)CCC2(CCN(C4CCC4)CC2)O3)CC1)N1CCOCC1` [Example 434]: the melting point lay within 165 to 167 °C. Besides, the Ki in series [1] (setting [3]) was less than 200 nM. The Ki in series [2] (setting [4]) was less than 200 nM.
Take `O=C(C1CC1)N1CCC(Oc2ccc3c(c2)CCC2(CCN(C4CCC4)CC2)O3)CC1` [Example 435]: the melting point is 243 to 245 °C. Further, in series [1] (setting [3]), the inhibitory constant (Ki) was less than 200 nM. Further, the Ki in series [2] (setting [4]) is less than 200 nM.
In the case of `CN(C)C(=O)C1CCN(c2ccc3c(c2)CCC2(CCN(C4CCC4)CC2)O3)CC1` [Example 436], the melting point was 140 to 142 °C. Besides, the Ki in series [1] (setting [3]) was less than 200 nM. Besides, in series [2] (setting [4]), the Ki is less than 200 nM.
As for `O=S(=O)(C1CC1)N1CCC(Oc2ccc3c(c2)CCC2(CCN(C4CCC4)CC2)O3)CC1` [Example 437], the melting point lay in the range of 233 to 235 °C. Further, the Ki in series [1] (setting [3]) was less than 200 nM. In addition, the Ki in series [2] (setting [4]) was less than 200 nM.
Turning to `c1cc2c(cc1N1CCC1)CCC1(CCN(C3CCC3)CC1)O2` [Example 438], the melting point lay within 118 to 120 °C. The Ki in series [1] (setting [3]) is less than 200 nM. In series [2] (setting [4]), the Ki was less than 200 nM.
`CNC(=O)c1ccc(OC2CCN(c3ccc4c(c3)CCC3(CCN(C5CCC5)CC3)O4)CC2)nc1` [Example 439] showed a melting point of 214 to 216 °C. For the same compound, the inhibitory constant (Ki) in series [1] (setting [3]) was less than 200 nM. In addition, the Ki in series [2] (setting [4]) was less than 200 nM.
With `CC(C)S(=O)(=O)N1CCC(Oc2ccc3c(c2)CCC2(CCN(C4CCC4)CC2)O3)CC1` [Example 440], the melting point lay in the range of 233 to 235 °C. The compound further displayed a Ki in series [1] of less than 200 nM. In series [2], this compound displayed a Ki of less than 200 nM.
